What all share (assay): Antibiotic activity, MIC by standard methodology
Assay type in all cases: cell-based

Experiment [1] deals with S. aureus. An excerpt: (§1) Chemical synthesis of the sequence (SEQ ID NO. 4) corresponding to Peptides 1 and 2 (SEQ ID NOS: 1 and 2 respectively) containing native (unmodified) tryptophan was achieved by SPPS, using Fmoc chemistry.
Experiment [2] deals with P. aeruginosa.
Text: as §1

The subject of experiment [3] is E. coli.
Text: as §1

For experiment [4], the system named is C. albicans.
Text: as §1

No end group written: not given here.

For the sequence “GFFKKAWRKVKHAGRRVLDTAKGVGRHYVNNWLNRYR [SEQ ID NO. 4]”, the “minimum inhibitory concentration (MIC)” value is 8 µg/mL in experiment [1], 8 µg/mL in experiment [2], 8 µg/mL in experiment [3] and above 256 µg/mL in experiment [4].

For the origin of these results see US5734015A, “Family of linear antimicrobial peptides from hagfish intestine” (Magainin Pharmaceuticals Inc., priority 1996, dated 1998).
